Measurements taken from US20260109712A1, “RIFAMYCINS FOR NONTUBERCULOUS MYCOBACTERIA” (priority 2022, published 2026).
Converted amounts (≈) assume the structure as drawn. Read-outs that look alike come from different tables or passages of the source.

How the values were obtained:
[1] = system: M. abscessus subsp. abscessus K21; test: MIC assay, clinical isolate K21; type: cell-based, Mycobacterium abscessus; details: 90% inhibition of bacterial growth
[2] = Mouse pharmacokinetics studies; type: in vivo, CD-1 mice
Outline: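 Plasma from K2EDTA-collected blood analysed by LC-MS/MS with multiple-reaction monitoring in electrospray positive mode. Parameters derived by non-compartmental analysis.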

[3] = system: THP-1; test: Fold-killing in THP-1; type: cell-based; details: expressed in log-10 scale
[4] = system: Mycobacterium abscessus; test: MIC against Mycobacterium abscessus (strain not given); type: cell-based
[5] = system: CYP3A4; details: human
[6] = female, CD-1, mouse, in vivo, 10 mg/kg
[7] = female, CD-1, mouse, in vivo, iv, 10 mg/kg

Question: Which results are given for `CO[C@H]1/C=C/O[C@@]2(C)Oc3c(C)c(O)c4c(c3C2=O)C2=NC3(CCN(CC(C)C)CC3)NC2=C(NC(=O)/C(C)=C/C=C/[C@H](C)[C@H](O)[C@@H](C)[C@@H](O)[C@@H](C)[C@H](OC(=O)c2cccnc2)[C@@H]1C)C4=O` [5m, 25-O-(3-pyridinecarbonyl)-25-O-desacetyrifabutin]?
Answer: Mab K21 MIC [1]: 0.033 µM; CL ([2]; mouse, in vivo, 10 mg/kg): 3.0 mL/min/kg; Vd ([2]; mouse, in vivo, 10 mg/kg): 1.6 L/kg; fAUC/MIC, times higher than rifabutin ([2]; mouse, in vivo, po, 10 mg/kg): 128

Question: With `CO[C@H]1/C=C/O[C@@]2(C)Oc3c(C)c(O)c4c(c3C2=O)C2=NC3(CCN(CC(C)C)CC3)NC2=C(NC(=O)/C(C)=C\C=C\[C@H](C)[C@H](O)[C@@H](C)[C@@H](O)[C@@H](C)[C@H](OC(C)=O)[C@@H]1C)C4=O` [rifabutin, reference compound] as the compound, how does the “Fold-killing in THP-1” value [3] read?
Answer: The value was 2.3.

Question: What about the MIC ([4]; Mycobacteroides abscessus, 72 h, Table 22, read-out: MICMab) of the same compound?
Answer: Its MIC is 1.15 µM (≈ 0.974 µg/mL).

Question: What about the MIC ([4]; Mycobacteroides abscessus, Table 13, read-out: Mab MIC) of the same compound?
Answer: Its MIC is 1.1 µM (≈ 0.932 µg/mL).

Question: And the MIC ([4]; Mycobacteroides abscessus, against Mycobacterium abscessus, Table 19, read-out: MIC)?
Answer: The MIC was 1.1 µM (≈ 0.932 µg/mL).

Question: And the MIC ([4]; against Mycobacterium abscessus, Table 20, read-out: MIC)?
Answer: The MIC was 1.1 µM (≈ 0.932 µg/mL).

Question: And the ƒAUC/MIC ([2]; Table 18)?
Answer: Its ƒAUC/MIC is 0.22.

Question: What about the ƒAUC/MIC ([2]; Table 20) of the same compound?
Answer: Its ƒAUC/MIC is 0.22.

Question: What about the “25-O-desacetyl rifabutin 6 detected in mouse plasma” value ([2]; female, CD-1, mouse, in vivo) of the same compound?
Answer: Its value is 0.4%.

Question: What about the F ([2]; female, CD-1, mouse, in vivo) of the same compound?
Answer: The F was 70%.

Question: And the Vd ([2]; female, CD-1, mouse, in vivo)?
Answer: The Vd was 3.5 L/kg.

Question: And the clearance ([2]; female, CD-1, mouse, in vivo)?
Answer: Its clearance is 10.3 mL/min/kg.

Question: And the Vd [2, 6]?
Answer: Its Vd is 3.51 L/kg.

Question: And the clearance [2, 6]?
Answer: The clearance was 10.3 mL/min/kg.

Question: And the C-25 deacylation i.v. ([2]; female, CD-1, mouse, in vivo, iv)?
Answer: The C-25 deacylation i.v. was 0.4%.

Question: And the Vd [2, 7]?
Answer: Its Vd is 3.51 L/kg.

Question: What about the clearance [2, 7] of the same compound?
Answer: The clearance was 10.3 mL/min/kg.

Question: What about the C-25 deacylation p.o. ([2]; female, CD-1, mouse, in vivo, po) of the same compound?
Answer: Its C-25 deacylation p.o. is 0.4%.

Question: What about the AUC ([2]; female, CD-1, mouse, in vivo, po, 10 mg/kg) of the same compound?
Answer: Its AUC is 11500 ng·h/mL.

Question: And the half-life ([2]; female, mouse, in vivo, CD-1 mice, 10 mg/kg)?
Answer: Its half-life is 4 h.

Question: What about the fAUC/MIC ([2]; p.o. doses of 10 mg/kg) of the same compound?
Answer: The fAUC/MIC was 0.22.

Question: And the “CYP3A4 gene fold-induction at 10 μM” value [5]?
Answer: The value was 40.0.
